According to patent US20210244028A1, “TREATMENT FOR REMOVING ECTOPARASITES FROM FISH” (priority 2018, published 2021):

Tested on: Atlantic salmon
Experiment: Fish mortality and behaviour during bath treatment (Example 7)
Format: in vivo
Conditions: 20 ppm to 200 ppm, 3 to 60 minutes
Description: To determine the concentration- and time-dependence of imidacloprid treatment in vivo, Atlantic salmon (average of 320.9 g) were challenged with imidacloprid in seawater ([…] salinity) at 12° C. The water level in the tank was lowered and aeration was employed during administration of the active. The salmon louse copepodid culture was counted and adjusted to obtain a target level of around 40 copepodids per fish in the challenge tank at each challenge time point.
Fish behaviour/appearance was assessed in vivo during each test. Any changes in behaviour and/or appearance including mortality were recorded.

SMILES: O=[N+]([O-])NC1=NCCN1Cc1ccc(Cl)nc1 [imidacloprid]
- Fish mortality in the trial: No fish died
